Patent publication US20260158014A1, “METHODS OF ADMINISTERING VOXELOTOR” (Global Blood Therapeutics, Inc., priority 2021, published 2026)

Legend:
Hb = test: Pharmacodynamics: Hb oxygen affinity (p50) and clinical measures of hemolysis; assay type: in vivo
CYP2C19 = molecular target: T1, CYP2C19 (Homo sapiens, UniProt P33261); test: Clinical probe-substrate DDI study: omeprazole; assay type: in vivo
T1 construct: endogenous in cells; host or cells: healthy human subjects (in vivo)
Description: (§1) The effect of voxelotor on the pharmacokinetics (PK) of a single dose of caffeine, warfarin sodium, omeprazole, and midazolam hydrochloride, which are probe substrates for cytochrome P450 (CYP)1A2, CYP2C9, CYP2C19, and CYP3A4, respectively, were studied in healthy subjects. During Period 1, subjects received a single dose of caffeine 100 mg, warfarin sodium 10 mg+vitamin K 10 mg, omeprazole 20 mg, and midazolam hydrochloride 2 mg on Day 1. During Period 2, subjects received voxelotor 900 mg QD on Days 1 and 2 followed by 600 mg QD on Day 3, a single dose of caffeine 100 mg, warfarin sodium 10 mg+vitamin K 10 mg, omeprazole 20 mg, and midazolam hydrochloride 2 mg on Day 4, and voxelotor 600 mg QD on Days 4 through 7.
(§2) Whole blood and plasma concentrations of voxelotor and plasma concentrations of caffeine, paraxanthine, S-warfarin, omeprazole, 5-hydroxyomeprazole, midazolam, and 1-hydroxymidazolam were determined using validated assays.

CYP1A2 = CYP1A2 (Homo sapiens, UniProt P05177); test: Clinical probe-substrate DDI study: caffeine; assay type: in vivo
Description: as §1, §2

CYP3A4 = CYP3A4 (Homo sapiens, UniProt P08684); test: Clinical probe-substrate DDI study: midazolam; details: human, in vivo
Description: as §1, §2

pregnant rats = test: Pre- and postnatal development study in rats; assay type: in vivo, rat
Description: In a pre- and postnatal development study, voxelotor was administered orally to pregnant rats at 15, 50 and 250 mg/kg/day (gestation day 6 through lactation day 20). Maternal gestational body weights were decreased at 250 mg/kg/day, which continued to the end of lactation.

[1] = Tablet for oral suspension versus oral tablet exposure in healthy subjects; assay type: in vivo, human
QT interval = test: Cardiac electrophysiology (QT interval); assay type: in vivo; details: plasma concentrations approximately 2-fold above therapeutic concentrations

T1 sequence (P33261 whole entry): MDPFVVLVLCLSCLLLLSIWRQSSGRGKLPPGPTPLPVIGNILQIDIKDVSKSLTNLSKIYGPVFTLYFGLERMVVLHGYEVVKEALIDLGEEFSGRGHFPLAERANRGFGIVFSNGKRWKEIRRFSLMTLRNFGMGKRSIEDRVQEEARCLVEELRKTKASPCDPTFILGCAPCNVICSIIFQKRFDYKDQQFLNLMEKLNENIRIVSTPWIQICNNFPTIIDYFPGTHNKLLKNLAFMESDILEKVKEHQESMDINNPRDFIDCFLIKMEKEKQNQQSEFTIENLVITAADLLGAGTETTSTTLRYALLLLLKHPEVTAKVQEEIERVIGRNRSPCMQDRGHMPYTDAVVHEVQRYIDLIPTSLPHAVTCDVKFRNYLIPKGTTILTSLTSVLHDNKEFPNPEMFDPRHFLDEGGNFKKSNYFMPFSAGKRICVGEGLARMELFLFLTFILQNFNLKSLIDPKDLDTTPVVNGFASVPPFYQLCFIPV
CYP3A4, sequence (P08684 whole entry): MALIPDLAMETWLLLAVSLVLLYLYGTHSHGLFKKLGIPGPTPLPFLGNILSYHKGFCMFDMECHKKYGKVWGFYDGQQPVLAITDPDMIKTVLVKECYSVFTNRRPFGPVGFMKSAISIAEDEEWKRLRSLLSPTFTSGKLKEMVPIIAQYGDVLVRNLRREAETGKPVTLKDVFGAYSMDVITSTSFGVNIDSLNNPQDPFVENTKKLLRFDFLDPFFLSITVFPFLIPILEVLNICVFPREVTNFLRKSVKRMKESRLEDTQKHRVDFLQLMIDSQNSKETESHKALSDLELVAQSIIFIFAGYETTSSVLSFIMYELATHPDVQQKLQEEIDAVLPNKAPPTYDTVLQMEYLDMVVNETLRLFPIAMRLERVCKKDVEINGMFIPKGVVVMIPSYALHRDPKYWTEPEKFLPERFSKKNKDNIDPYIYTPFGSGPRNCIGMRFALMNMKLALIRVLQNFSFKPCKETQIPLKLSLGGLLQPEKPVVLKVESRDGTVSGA
CYP1A2, sequence (P05177 whole entry): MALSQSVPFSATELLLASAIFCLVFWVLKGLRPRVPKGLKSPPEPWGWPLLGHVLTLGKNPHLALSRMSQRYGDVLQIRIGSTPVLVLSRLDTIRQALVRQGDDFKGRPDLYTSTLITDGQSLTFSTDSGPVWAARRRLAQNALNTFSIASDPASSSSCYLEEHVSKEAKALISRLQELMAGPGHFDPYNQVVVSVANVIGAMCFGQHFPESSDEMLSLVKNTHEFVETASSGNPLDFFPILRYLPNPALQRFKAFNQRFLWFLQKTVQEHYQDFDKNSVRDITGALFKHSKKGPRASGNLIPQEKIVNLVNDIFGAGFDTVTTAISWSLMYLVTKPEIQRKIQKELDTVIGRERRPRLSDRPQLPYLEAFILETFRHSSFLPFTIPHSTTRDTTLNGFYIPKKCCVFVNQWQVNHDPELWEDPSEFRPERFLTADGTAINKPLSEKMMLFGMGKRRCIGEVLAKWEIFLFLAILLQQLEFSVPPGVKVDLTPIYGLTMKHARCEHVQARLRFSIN

## CC(C)n1nccc1-c1ncccc1COc1cccc(O)c1C=O [voxelotor, 2-hydroxy-6-((2-(1-isopropyl-1H-pyrazol-5-yl)pyridin-3-yl)methoxy)benzaldehyde]
Hb; in vivo
  clinical measures of hemolysis (indirect bilirubin and % reticulocytes): dose-dependent reduction
Hb; linearly correlated with voxelotor exposure
  Hb oxygen affinity as determined by change in p50: dose-dependent increase
CYP2C19; healthy subjects, voxelotor 900/600 mg QD, omeprazole 20 mg
  effect of voxelotor on PK of CYP2C19 probe substrate omeprazole: no clinically meaningful effect
CYP2C19; human, in vivo
  CYP2C19 inhibition in vivo: not
CYP1A2; healthy subjects, voxelotor 900/600 mg QD, caffeine 100 mg
  effect of voxelotor on PK of CYP1A2 probe substrate caffeine: no clinically meaningful effect
CYP1A2; human, in vivo
  CYP1A2 inhibition in vivo: not
CYP3A4
  CYP3A4 inhibition in vivo: inhibits
  CYP3A4 inhibitor classification: moderate inhibitor
Pregnant rats; 250 mg/kg/day, gestation day 6 through lactation day 20
  maternal gestational body weights: decreased
Pregnant rats; maternal dose 250 mg/kg/day
  findings in offspring: reduced survival and reduced body weights
Pregnant rats; maternal dose with offspring effects
  exposure at 250 mg/kg/day relative to exposure in patients at recommended dose: approximately 2.8 times
[1]
  exposures, tablet for oral suspension dispersed in water vs oral tablet swallowed whole: comparable
QT interval
  QT interval prolongation: does not prolong QT interval to any clinically relevant extent
